Numbered stars: 1 amine (or outer) side, 2 acyl side, 3 side chain; on linkers, the order of the positions; unused ones are H or OH. Bridge positions count the residues as written; N and C are the ends. Square brackets hold non-standard residues; d marks the D form. Peptide text beside a SMILES is read from it. I, II: the chains in the order shown. Actinocin(9to1) = Cc1c2oc3c(C)ccc(C(=O)[*:1])c3nc-2c(C(=O)[*:2])c(N)c1=O; NMeV = CN[C@H](C(=O)O)C(C)C; Sar = CNCC(=O)O
What was measured:
HL-60 cells [1] = assay: HL-60 cell growth inhibition, 3 days; type: cell-based; details: Homo sapiens, HL-60, 72 h, 30 μg/ml, read-out: Cell growth inhibiting effect (%)
Description: (§1) HL-60 cells were cultivated in RPMI-1640 medium supplemented with 10% of FCS at 37° C. under 5% CO2, and the cell concentration was adjusted to 5×10^4 cells/ml.
(§2) Then, the above-mentioned medium containing 30 μg/ml of each test compound was added to each well of 6-well microplates (Costar), followed by 3 days of incubation at 37° C. under 5% CO2. In a control group, the above medium alone was added and incubation was performed in the same manner. Thereafter, each cultured cell suspension was sampled into an Eppendorf tube and, after staining with 0.2% trypan blue-containing phosphate buffer, viable cells were counted using a hematocytometer.

HL-60 cells [2] = assay: Induction of differentiation of HL-60 cells (CD11b expression, flow cytometry); type: cell-based, human; parameters: reference not given here; details: 30 μg/ml; 3 days; CD11b fluorescence
Description: as §1, §2
The above cells were adjusted to 1×10^7 cells/ml. To 100 μl of the cell suspension was added 5 μl of a solution of fluorescein isothiocyanate (FITC)-labeled anti-human CD11b antibody (Mol; Coulter) and the reaction was allowed to proceed on ice in the dark for 30 minutes. Then, cells were washed twice with PBS (phosphate-buffered saline; Nissui Pharmaceutical) containing 0.1% of BSA (bovine serum albumin; Sigma), finally suspended in 500 μl of the BSA-containing PBS and measured for fluorescence intensity by flow cytometry using Profile II (Coulter).

apoptosis = details: literature; cited from earlier work
[3] = tested on: small intestine crypt cells; details: literature; cited from earlier work
HL-60 cells [4] = details: literature; cited from earlier work
lymphocytic tumor cells = details: X-ray radiation; literature; cited from earlier work
acute leukemia cells = details: literature; cited from earlier work
nerve cells = details: administration in advance; literature; cited from earlier work
sympathetic nerve cells = details: literature; cited from earlier work
[5] = tested on: aged rats with learning disorder; details: literature; cited from earlier work
PC12 cells = assay: Effect on PC12 cells (morphology, phase contrast microscope); details: NGF alone group, 0.3% FCS
Description: PC12 cells subcultured in Dulbecco's modified Eagle's medium (D-MEM) supplemented with 5% heat-inactivated (56° C., 30 minutes) horse serum and 10% fetal calf serum (FCS) were transferred onto collagen-coatedplastic Petri dishes (35 mm in diameter) at a concentration of 6×10^4 cells/3 ml medium.

COc1cc(C(=O)N2CCN(c3ccc4c(c3)CCC(=O)N4)CC2)cc(OC)c1OC [Compound 2, 6-[4-(3,4,5-Trimethoxybenzoyl)-1-piperazinyl]-3,4-dihydrocarbostyril]
inhibition at 30 µg/mL (HL-60 cells [1]): 20.2%

COc1cc(C(=O)N2CCN(c3ccc4c(c3)NC(=O)CC4)CC2)cc(OC)c1OC [Compound 3, 7-[4-(3,4,5-Trimethoxybenzoyl)-1-piperazinyl]-3,4-dihydrocarbostyril]
Induction of differentiation promoting effect (HL-60 cells [2]): 384

COc1ccc(C(=O)N2CCN(c3ccc4c(c3)NC(=O)CC4)CC2)cc1OC [Compound 4, 7-[4-(3,4-Dimethoxybenzoyl)-1-piperazinyl]-3,4-dihydrocarbostyril]
Induction of differentiation promoting effect (HL-60 cells [2]): 383

CCOc1ccc(C(=O)N2CCN(c3ccc4c(c3)CCC(=O)N4)CC2)cc1 [Compound 5, 6-[4-(4-Ethoxybenzoyl)-1-piperazinyl]-3,4-dihydrocarbostyril]
Induction of differentiation promoting effect (HL-60 cells [2]): 232

COc1ccc(C(=O)N2CCN(c3cccc4c3CCC(=O)N4)CC2)cc1OC [Compound 6, 5-[4-(3,4-Dimethoxybenzoyl)-1-piperazinyl]-3,4-dihydrocarbostyril]
Induction of differentiation promoting effect (HL-60 cells [2]): 303

COc1ccc(C(=O)N2CCN(c3ccc4[nH]c(=O)ccc4c3)CC2)cc1OC [Compound 7, 6-[4-(3,4-Dimethoxybenzoyl)-1-piperazinyl]carbostyril]
Induction of differentiation promoting effect (HL-60 cells [2]): 898 | inhibition at 30 µg/mL (HL-60 cells [1]): 24.1%

COc1ccc(C(=O)N2CCN(c3cccc4c3NC(=O)CC4)CC2)cc1OC [Compound 8, 8-[4-(3,4-Dimethoxybenzoyl)-1-piperazinyl]-3,4-dihydrocarbostyril]
Induction of differentiation promoting effect (HL-60 cells [2]): 344 | inhibition at 30 µg/mL (HL-60 cells [1]): 24.9%

Cc1c2oc3c(C)ccc(C(=O)N[C@@H]4C(=O)N[C@H](C(C)C)C(=O)N5CCC[C@H]5C(=O)N(C)CC(=O)N(C)[C@@H](C(C)C)C(=O)O[C@@H]4C)c3nc-2c(C(=O)N[C@@H]2C(=O)N[C@H](C(C)C)C(=O)N3CCC[C@H]3C(=O)N(C)CC(=O)N(C)[C@@H](C(C)C)C(=O)O[C@@H]2C)c(N)c1=O [actinomycin D] (I: T[dV]P[Sar][NMeV] / II: T[dV]P[Sar][NMeV]; ester I:1-I:C, II:1-II:C; linker I:N-II:N via Actinocin(9to1))
Repression of apoptosis (apoptosis): capable of repressing apoptosis | Apoptosis induction in small intestine crypt cells [3]: apoptosis induction | Apoptosis induction in HL-60 cells (HL-60 cells [4]): apoptosis induction | Apoptosis of lymphocytic tumor cells (lymphocytic tumor cells): potentiates

C[C@@H]1C[C@@H]([C@H](O)CC2CC(=O)NC(=O)C2)C(=O)[C@@H](C)C1 [cycloheximide]
Repression of apoptosis (apoptosis): capable of repressing apoptosis | Apoptosis induction in acute leukemia cells (acute leukemia cells): apoptosis induction | Apoptosis induction in HL-60 cells (HL-60 cells [4]): apoptosis induction | Apoptosis of lymphocytic tumor cells (lymphocytic tumor cells): suppresses

GM-CSF: granulocyte macrophage colony stimulating factor
Repression of apoptosis (apoptosis): repress apoptosis

NGF: nerve growth factor (NGF, Wako Pure Chemical)
Nerve cell death in development stage (nerve cells): complete inhibition of nerve cell death | Programmed death of sympathetic nerve cells (sympathetic nerve cells): can inhibit programmed death of sympathetic nerve cells | Recovery from learning disorder [5]: can recover from learning disorder | Formation of nerve-like processes, NGF stimulation (PC12 cells): formation of nerve-like processes

bcl-2 gene product: bcl-2 gene product
Repression of apoptosis (apoptosis): repress apoptosis

B1: G-CSF: granulocyte colony stimulating factor (protein, UniProt P09919 31-207, looked up)
Granulocyte …: TPLGPASSLPQSFLLKCLEQVRKIQGDGAALQEKLVSECATYKLCHPEELVLLGHSLGIPWAPLSSCPSQALQLAGCLSQLHSGLFLYQGLLQALEGISPELGPTLDTLQLDVADFATTIWQQMEELGMAPALQPTQGAMPAFASAFQRRAGGVLVASHLQSFLEVSYRVLRHLAQP
Repression of apoptosis (apoptosis): repress apoptosis

B2: lymphotoxin (LT): lymphotoxin (LT) (protein, UniProt P01374 35-205, looked up)
Lymphotoxin-alpha: LPGVGLTPSAAQTARQHPKMHLAHSTLKPAAHLIGDPSKQNSLLWRANTDRAFLQDGFSLSNNSLLVPTSGIYFVYSQVVFSGKAYSPKATSSPLYLAHEVQLFSSQYPFHVPLLSSQKMVYPGLQEPWLHSMYHGAAFQLTQGDQLSTHTDGIPHLVLSPSTVFFGAFAL
Induction of apoptosis (apoptosis): induced

Reference: patent US5672603A, “Apoptosis regulating composition” (Otsuka Pharmaceutical Co., Ltd., priority 1991, dated 1997)
